Consider 10 compounds from patent publication US10995101B2, “2-oxo-thiazole derivatives as A2A inhibitors and compounds for use in the treatment of cancers” (iTeos Therapeutics SA, priority 2017, dated 2021).

The target in data set [1] is T1, A2A receptor (Homo sapiens, UniProt P29274). In words: Human IL-2 T cell assay (restoration of IL-2 production in CGS-21680-treated CD3+ T cells). It is filed as cell-based. Further details: endogenous in cells; host or cells: human CD3+ T cells isolated from venous blood of healthy volunteers. The source says: When T-cells are activated, they produce pro-inflammatory cytokines. When the A2A receptor is activated in T cells, the amount of cytokines produced in response to stimulation of T-cells is reduced.
T1 sequence (P29274 whole entry): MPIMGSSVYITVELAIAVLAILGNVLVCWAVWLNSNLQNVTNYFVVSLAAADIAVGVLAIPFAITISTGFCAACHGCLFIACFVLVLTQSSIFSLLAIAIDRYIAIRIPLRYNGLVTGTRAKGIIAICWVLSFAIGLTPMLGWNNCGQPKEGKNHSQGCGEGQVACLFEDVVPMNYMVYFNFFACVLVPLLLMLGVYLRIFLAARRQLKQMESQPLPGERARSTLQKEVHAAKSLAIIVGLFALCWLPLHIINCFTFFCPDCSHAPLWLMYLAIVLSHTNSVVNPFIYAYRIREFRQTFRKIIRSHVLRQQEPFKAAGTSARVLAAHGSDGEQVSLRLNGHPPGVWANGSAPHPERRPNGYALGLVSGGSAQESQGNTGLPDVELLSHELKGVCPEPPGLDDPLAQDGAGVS
Venous blood from healthy volunteers, all of whom signed an informed consent approved by the Ethics Committee (FOR-UIC-BV-050-01-01 ICF_HBS_HD Version 5.0), was obtained via ImmuneHealth (Centre Hospitalier Universitaire Tivoli, La Louviere, Belgium). Mononuclear cells were collected by density gradient centrifugation, using SepMate-50 tubes (StemCell Technologies, Grenoble, France) and Lymphoprep (Axis-shield, Oslo, Norway) according to the manufacturer's instructions. CD3+ T cells were isolated by immunomagnetic negative selection, using the EasySep Human T Cell Isolation Kit (StemCell Technologies) as per manufacturer's instructions. CD3+ T cells were stored in heat inactivated foetal bovine serum (hiFBS; Gibco, ThermoFisher Scientific, Merelbeke, Belgium) containing 10% DMSO in liquid nitrogen.
Human purified CD3+ T cells were thawed and washed twice with RPMI1640 medium (with UltraGlutamine; Lonza, Verviers, Belgium) supplemented with 1× non-essential amino acids (Lonza), 2% Pen/Strep (Lonza) and 1 mM Sodium Pyruvate (Gibco) (complete media), containing 10% hiFBS. The cells were suspended either in complete media containing 20% hiFBS or in 100% heat inactivated human serum (hiHS; Sigma-Aldrich, Diegem, Belgium). Cells were activated by adding anti-CD3 and anti-CD28 coated microbeads (Dynabeads human T-activator CD3/CD28; Life Technologies, Paisley, UK), suspended either in complete media containing 20% hiFBS or in 100% hiHS. […] Serial dilutions of the compounds of the present invention were prepared and added to the wells. The cells were placed in a 37° C. humidified tissue culture incubator with 5% CO2 for 72 hours. After 72 hours, supernatants were sampled and IL-2 was quantified using the IL-2 (human) AlphaLISA Biotin-Free Detection Kit (AL333F; Perkin-Elmer, Zaventem, Belgium), according to the manufacturer's instructions.

Another data set can be described thus: in vitro. The conditions noted are these: human, Caco-2, pH 7.4.
Data set [2] has as its target T1, A2A receptor. In words: Inhibition of cAMP production in HEK cells. The class given is cell-based. The conditions noted are these: HEK-293 cells with A2A receptor.
The test system of another data set is Caco-2 cells. In words: Permeability and efflux in Caco-2 cells. The note with it: Caco-2 monolayer, 2 μM, 120 minutes, pH 7.4.
The target in a further data set is A2AR (Mus musculus, UniProt Q60613). The conditions noted are these: for Score (locomotion / immobility): score observed in at least 60-100% of mice for 30 minutes.
A2AR, sequence (Q60613 whole entry): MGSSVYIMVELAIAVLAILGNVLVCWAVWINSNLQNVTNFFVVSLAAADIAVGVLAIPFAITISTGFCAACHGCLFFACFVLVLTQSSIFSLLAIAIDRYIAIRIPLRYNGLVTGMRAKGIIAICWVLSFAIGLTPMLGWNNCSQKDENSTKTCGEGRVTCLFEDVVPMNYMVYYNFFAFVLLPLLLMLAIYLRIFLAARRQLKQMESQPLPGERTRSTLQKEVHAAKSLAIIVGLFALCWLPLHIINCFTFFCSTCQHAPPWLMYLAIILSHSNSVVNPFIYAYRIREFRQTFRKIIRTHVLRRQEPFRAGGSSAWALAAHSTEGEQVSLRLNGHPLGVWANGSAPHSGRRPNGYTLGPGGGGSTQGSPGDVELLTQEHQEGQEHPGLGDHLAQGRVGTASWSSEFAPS
The mark [3] stands for this setting: IC50 (nM) (500 nM CGS-21680 as agonist, 10% FBS), restoration of IL-2 production, human CD3+ T cells, anti-CD3/CD28 beads, 500 nM CGS-21680, 10% FBS, 72 hours.
The mark [4] stands for this setting: IC50 (nM) (500 nM CGS-21680 as agonist, 50% HSA), restoration of IL-2 production, human CD3+ T cells, anti-CD3/CD28 beads, 500 nM CGS-21680, 50% HSA, 72 hours.
[5] abbreviates: IC50 (nM) (5000 nM CGS-21680 as agonist, 50% HSA), restoration of IL-2 production, human CD3+ T cells, anti-CD3/CD28 beads, 5000 nM CGS-21680, 50% HSA, 72 hours.
Where [6] appears, read: IC50 (nM) (3 nM NECA as agonist, 0.1% BSA), 3 nM NECA as agonist, 0.1% BSA.
The mark [7] stands for this setting: IC50 (nM) (5 nM NECA as agonist, 2% HSA), 5 nM NECA as agonist, 2% HSA.
Where [8] appears, read: IC50 (nM) (5 μM Adenosine as agonist, 2.0% HSA), 5 μM Adenosine as agonist, 2.0% HSA.

Like-named read-outs stand apart in the source and are kept apart here.

As to `CNCCNC(=O)c1ccc(N2CCN(CCn3c(=O)sc4c3nc(N)n3nc(-c5ccco5)nc43)CC2)c(F)c1` [Compound 31, 4-(4-(2-(5-amino-8-(furan-2-yl)-2-oxothiazolo[5,4-e][1,2,4]triazolo[1,5-c]pyrimidin-3(2H)-yl)ethyl)piperazin-1-yl)-3-fluoro-N-(2-(methylamino)ethyl)benzamide], the IC50 on A2A receptor [1] stood at 8.3 nM; at A2A receptor [1] (setting [3]) it was 2.1 nM; on A2A receptor [1] (setting [4]), 5.4 nM; on A2A receptor [1] (setting [5]), 14 nM; on A2A receptor [2] (setting [6]), 0.4 nM; on A2A receptor [2] (setting [7]), 1 nM. This compound returned an IC50 at A2A receptor [2] (setting [8]) of 42 nM. Also, the efflux ratio at 120 min, 2 μM in the data set “in vitro” was found to be 28.
For `CN(C)CCNC(=O)c1ccc(N2CCN(CCn3c(=O)sc4c3nc(N)n3nc(-c5ccco5)nc43)CC2)c(F)c1` [Compound 32, 4-(4-(2-(5-amino-8-(furan-2-yl)-2-oxothiazolo[5,4-e][1,2,4]triazolo[1,5-c]pyrimidin-3(2H)-yl)ethyl)piperazin-1-yl)-N-(2-(dimethylamino)ethyl)-3-fluorobenzamide], the IC50 on A2A receptor [1] (setting [5]) is 28 nM; on A2A receptor [2] (setting [6]), 4.3 nM; on A2A receptor [2] (setting [7]), 7 nM; on A2A receptor [2] (setting [8]) it was 356 nM. Further, the efflux ratio at 120 min, 2 μM in “in vitro” was 329.
On to `Nc1nc2c(sc(=O)n2CCN2CCN(c3ccc(OCC(=O)O)cc3F)CC2)c2nc(-c3ccco3)nn12` [Compound 35, 2-(4-(4-(2-(5-amino-8-(furan-2-yl)-2-oxothiazolo[5,4-e][1,2,4]triazolo[1,5-c]pyrimidin-3(2H)-yl)ethyl)piperazin-1-yl)-3-fluorophenoxy)acetic acid], for which the IC50 on A2A receptor [1] was 3.9 nM; at A2A receptor [1] (setting [3]) it was 0.6 nM; at A2A receptor [1] (setting [4]), 0.5 nM; at A2A receptor [1] (setting [5]) it was 84 nM; at A2A receptor [2] (setting [6]), 0.7 nM; on A2A receptor [2] (setting [7]), 13 nM. This compound also came in with an IC50 on A2A receptor [2] (setting [8]) of 378 nM. Further, the efflux ratio at 120 min, 2 μM in “in vitro” is 26.
Take `CC(C)(Oc1ccc(N2CCN(CCn3c(=O)sc4c3nc(N)n3nc(-c5ccco5)nc43)CC2)c(F)c1)C(=O)O` [Compound 39, 2-(4-(4-(2-(5-amino-8-(furan-2-yl)-2-oxothiazolo[5,4-e][1,2,4]triazolo[1,5-c]pyrimidin-3(2H)-yl)ethyl)piperazin-1-yl)-3-fluorophenoxy)-2-methylpropanoic acid]: the IC50 came out at 5.3 nM against A2A receptor [1]; 1 nM at A2A receptor [1] (setting [3]); 12 nM on A2A receptor [1] (setting [4]); 150 nM at A2A receptor [1] (setting [5]); 0.8 nM at A2A receptor [2] (setting [6]); 15 nM at A2A receptor [2] (setting [7]). On A2A receptor [2] (setting [8]), this compound had an IC50 of 719 nM. Further, the efflux ratio at 120 min, 2 μM in “in vitro” was 110.
As to `Nc1nc2c(sc(=O)n2CCN2CCN(c3cc(OCC(=O)O)c(F)cc3F)CC2)c2nc(-c3ccco3)nn12` [Compound 43, 2-(5-(4-(2-(5-amino-8-(furan-2-yl)-2-oxothiazolo[5,4-e][1,2,4]triazolo[1,5-c]pyrimidin-3(2H)-yl)ethyl)piperazin-1-yl)-2,4-difluorophenoxy)acetic acid], the IC50 was found to be 51 nM on A2A receptor [1] (setting [5]), 0.2 nM at A2A receptor [2] (setting [6]), 1 nM on A2A receptor [2] (setting [7]) and 36 nM at A2A receptor [2] (setting [8]). Moreover, in “in vitro”, the efflux ratio at 120 min, 2 μM was determined as 164.
Take `Nc1nc2c(sc(=O)n2CCN2CCN(c3ccc(C(=O)O)cc3F)CC2)c2nc(-c3ccco3)nn12` [Compound 44, 4-(4-(2-(5-amino-8-(furan-2-yl)-2-oxothiazolo[5,4-e][1,2,4]triazolo[1,5-c]pyrimidin-3(2H)-yl)ethyl)piperazin-1-yl)-3-fluorobenzoic acid]: the IC50 on A2A receptor [1] (setting [5]) was 33 nM; on A2A receptor [2] (setting [6]) it was 0.5 nM; on A2A receptor [2] (setting [7]), 11 nM; at A2A receptor [2] (setting [8]), 127 nM. Further, the efflux ratio at 120 min, 2 μM in “in vitro” was determined as 69.
For the compound `Nc1nc2c(sc(=O)n2CCN2CCN(c3ccc(OCc4nc[nH]n4)cc3F)CC2)c2nc(-c3ccco3)nn12` [Compound 49, 3-(2-(4-(4-((1H-1,2,4-triazol-3-yl)methoxy)-2-fluorophenyl)piperazin-1-yl)ethyl)-5-amino-8-(furan-2-yl)thiazolo[5,4-e][1,2,4]triazolo[1,5-c]pyrimidin-2(3H)-one], the IC50 at A2A receptor [1] (setting [5]) amounted to 61 nM; on A2A receptor [2] (setting [6]), 0.5 nM; on A2A receptor [2] (setting [7]) it was 16 nM; on A2A receptor [2] (setting [8]) it was 465 nM. Besides, the efflux ratio at 120 min, 2 μM in the data set “in vitro” came out at 97.
On to `CNCCNC(=O)COc1ccc(N2CCN(CCn3c(=O)sc4c3nc(N)n3nc(-c5ccco5)nc43)CC2)c(F)c1` [Compound 50, 2-(4-(4-(2-(5-amino-8-(furan-2-yl)-2-oxothiazolo[5,4-e][1,2,4]triazolo[1,5-c]pyrimidin-3(2H)-yl)ethyl)piperazin-1-yl)-3-fluorophenoxy)-N-(2-(methylamino)ethyl)acetamide], for which the IC50 against A2A receptor [1] is 4.3 nM; on A2A receptor [1] (setting [3]), 1 nM; on A2A receptor [1] (setting [4]), 2.2 nM; at A2A receptor [1] (setting [5]) it was 28 nM; at A2A receptor [2] (setting [6]) it was 0.3 nM; at A2A receptor [2] (setting [8]) it was 13 nM. Further, in the data set “in vitro”, the efflux ratio at 120 min, 2 μM is 38.
As to `Nc1nc2c(sc(=O)n2CCN2CCN(c3cc(O[C@H]4CNC[C@@H]4F)c(F)cc3F)CC2)c2nc(-c3ccco3)nn12` [Compound 92, 5-amino-3-(2-(4-(2,4-difluoro-5-(((3S,4S)-4-fluoropyrrolidin-3-yl)oxy)phenyl)piperazin-1-yl)ethyl)-8-(furan-2-yl)thiazolo[5,4-e][1,2,4]triazolo[1,5-c]pyrimidin-2(3H)-one], the IC50 at A2A receptor [2] (setting [6]) came to 0.7 nM; on A2A receptor [2] (setting [8]), 388 nM. Moreover, the Efflux ratio in the data set with Caco-2 cells turned out to be 101.
With `COCCOc1ccc(N2CCN(CCn3ncc4c3nc(N)n3nc(-c5ccco5)nc43)CC2)cc1` [Preladenant], the figures for the “Score (locomotion / immobility)” value on A2AR (1 mg/kg PO 30 min prior to CGS21680) and at A2AR (10 mg/kg PO 30 min prior to CGS21680) were “+” and 0, respectively. Besides, the “effect on CGS21680 induced immobility” value at A2AR (P.O. at 10 mg/kg, 30 min prior to CGS21680) is “inhibited CGS21680 induced immobility”.
